Assay results from US10722519B2, “Aerosol fluoroquinolone formulations for improved pharmacokinetics” (priority 2008, dated 2020).
Converted amounts (≈) assume the structure as drawn. Where two headings read alike, the source gives them in different places.

Tests used:
in vivo = settings: rat, 10 mg/kg
Protocol: This example relates to aerosol and intravenous administration of fluoroquinolones in saline. A rat pharmacokinetic model was used to compare intravenous and pulmonary administration of fluoroquinolones. […] Doses were administered via the lateral tail vein, or to the lung just above the tracheal bifurcation using a micro-spray aerosol device (Penn Century, Philadelphia, Pa.).
Approximately 0.3 ml blood samples were taken from 2-6 rats at each timepoint via an indwelling jugular vein cannula, and collected in lithium heparin tubes. Bronchial alveolar lavage (BAL) and lung tissue were collected following euthanasia. […] Sample concentrations were determined against a standard curve.

P. aeruginosa ATCC 27853 [1] = assay: Acute mouse lung infection model; settings: mice; for survival rate: monitored over 9 days; for maximum dose, limited due to toxicity: aerosol route
Protocol: Aerosol Administration of antibiotics: Antibiotics were aerosolized using a microspray aerosol device (MicroSprayer Model IA-C, PennCentury, Philadelphia, Pa.) attached to a FMJ-250 High-Pressure Syringe (PennCentury, Philadelphia, Pa.). […] For administration, each mouse was anesthetized (5% isoflurane in oxygen running at 4 L/min) and positioned securely at a 45-50° angle by the upper teeth, the microspray aerosol tip was inserted to the bifurcation and a 50 μl volume was administered.
The bacterial suspensions were adjusted to approximately 1-6×10^5 CFU/ml by correlation of the absorbance at 600 nm with predetermined plate counts. […] On day 4, mice were infected by intratracheal (IT) instillation of 0.05 ml of inoculum using a curved oral gavage tip attached to a 1 ml syringe. […] Antibiotics were aerosolized using a microspray aerosol device. All infections and aerosol treatments were performed under isoflurane anesthesia (5% isoflurane in oxygen running at 4 L/min). An untreated group of mice (n=8) was sacrificed prior to the initiation of treatment to determine baseline bacterial counts. […] The lungs were removed aseptically and homogenized (Pro200 homogenizer, Pro Scientific, Monroe, Conn.) in 1 ml of sterile saline. Serial 10-fold dilutions of the homogenized lung were plated on Mueller-hinton agar (MHA), and colonies counted.
In addition, due to the need for anesthesia for treatment, the maximum number of daily doses was limited to two.

P. aeruginosa NH57388A [2] = assay: MIC, broth microdilution; assay type: cell-based; settings: P. aeruginosa NIH57388A CF
Protocol: (§1) Bacterial strains MIC testing: P. aeruginosa ATCC 27853 and NH57388A were used in these studies. MICs were determined by a broth microdilution assay according to CLSI reference methods (Methods for dilution of antimicrobial susceptibility test for bacteria that grow aerobically. Seventh Edition: Clinical and Laboratory Standards Institute (2006) M&-A7, incorporated by reference in its entirety). Assays were performed in a final volume of 100 μl. The bacterial suspensions were adjusted to yield a cell density of 5×10^5 CFU/ml. Antibiotics were prepared at a concentration equivalent to twofold the highest desired final concentration in culture medium and were then diluted directly into 96-well microtiter plates. Microtiter plates were incubated for 24 h at 35° C. and were read by using a microtiter plate reader (Molecular Devices) at 600 nm as well as by visual observation by using a microtiter plate reading mirror.

[3] = aerosol dose of […], adults with cystic fibrosis, Cooney et al. 1994; cited from earlier work
P. aeruginosa NH57388A [4] = assay: Chronic mouse lung infection model; assay type: in vivo; settings: mice, aerosol tobramycin 60 mg/kg twice a day for three consecutive days
Protocol: Bacterial cells were harvested by centrifugation (23,000×g, 30 min, at 4° C.) and resuspended in 3-6 ml of MHB. The supernatant was collected and placed in 80° C. water-bath for 30 min. […] The precipitated alginate was collected with a sterile bacterial loop and washed several times in sterile saline. The purified alginate was then resuspended in 10 ml of sterile saline and stirred vigorously to form a homogeneous suspension. […] The bacterial suspension was diluted (1:10) in the alginate suspension to yield about 10^8 CFU/ml. […] On day 4, the mice were infected using a curved bead-tipped oral gavage attached to a 1 ml syringe while under isoflurane anesthesia.

P. aeruginosa ATCC 27853 [5] = assay: MIC, broth microdilution; assay type: cell-based; settings: Pseudomonas aeruginosa, ATCC27853, P. aeruginosa ATCC27853
Protocol: as §1

[6] = male, Sprague-Dawley, in vivo, inhaled or intranasal
[7] = male, Sprague-Dawley, in vivo, iv
[8] = Pseudomonas aeruginosa, NH57388A, read-out: MIC

SMILES	F, % from Lung vs IV (in vivo; male, Sprague-Dawley, in vivo) [%]	MAT (in vivo; male, Sprague-Dawley, in vivo) [h]	AUC (in vivo; [6]) [ng·h/mL]	AUC(0-inf) (in vivo; [6]) [ng·h/mL]	MRT (in vivo; [6]) [h]	half-life (in vivo; [6]) [h]	AUC (in vivo; [7]) [ng·h/mL]	AUC(0-inf) (in vivo; [7]) [ng·h/mL]	MRT (in vivo; [7]) [h]	half-life (in vivo; [7]) [h]	maximum dose, limited due to toxicity (P. aeruginosa ATCC 27853 [1]) [mg/kg]	MIC (P. aeruginosa NH57388A [2]; [8]) [µg/mL]	other results
CCn1cc(C(=O)O)c(=O)c2cc(F)c(N3CCNCC3)cc21 [Norfloxacin, norfloxacin]	100	0	24600	4460	1.29	1.13	800	4650	1.59	1.21	–	–	–
NC[C@H]1O[C@H](O[C@H]2[C@H](O)[C@@H](O[C@H]3O[C@H](CO)[C@@H](O)[C@H](N)[C@H]3O)[C@H](N)C[C@@H]2N)[C@H](N)C[C@@H]1O [Tobramycin, tobramycin]	–	–	–	–	–	–	–	–	–	–	60	< 1	survival rate (P. aeruginosa ATCC 27853 [1]; aerosol 120 mg/kg/day (60 mg/kg BID)): 60%; mean reductions in bacterial counts (P. aeruginosa ATCC 27853 [1]; aerosol tobramycin 60 mg/kg twice a day for 2 consecutive days): 2.70 log CFU per lung; MIC (P. aeruginosa NH57388A [2]): 0.5 µg/mL (≈ 1.07 µM); bioavailability [3]: about 9%; mean log CFU reductions (P. aeruginosa NH57388A [4]): 2.9 log CFU
CO/N=C1\CN(c2nc3c(cc2F)c(=O)c(C(=O)O)cn3C2CC2)CC1CN (stereo not shown) [Gemifloxacin, gemifloxacin]	86	0.65	140000	5860	2.06	1.68	900	4540	1.41	1.04	–	–	–
COc1c(N2CCNC(C)C2)c(F)cc2c(=O)c(C(=O)O)cn(C3CC3)c12 (stereo not shown) [Gatifloxacin, gatifloxacin]	100	0	3120	5830	1.34	1.13	350	5310	1.39	1.06	–	–	–
C[C@H]1[C@H](NC(=O)/C(=N\OC(C)(C)C(=O)O)c2csc(N)n2)C(=O)N1S(=O)(=O)O [Aztreonam, aztreonam]	–	–	–	–	–	–	–	–	–	–	400	4 (≈ 9.19 µM)	survival rate (P. aeruginosa ATCC 27853 [1]; aerosol 800 mg/kg/day (400 mg/kg BID)): 20%; mean reductions in bacterial counts (P. aeruginosa ATCC 27853 [1]; aerosol aztreonam 400 mg/kg twice a day for 2 consecutive days): 0.24 log CFU per lung; MIC (P. aeruginosa ATCC 27853 [5]): 4 µg/mL (≈ 9.19 µM)
O=C(O)c1cn(C2CC2)c2cc(N3CCNCC3)c(F)cc2c1=O [Ciprofloxacin, ciprofloxacin]	–	–	–	–	–	–	–	–	–	–	–	–	MAT (in vivo; Aerosol, in saline): 0.59 h
